Measurements: patent US20140309188A1, “USE OF PHARMACEUTICAL COMPOSITION COMPRISING DEOXYNUCLEOSIDE AND NUCLEOSIDE FOR TREATMENT OF TUMOR” (priority 2011, published 2014)
Several values for one entry are separate records, joined by “and”; a condition that tells them apart may be missing. Equal values may be shown once.

Legend:
Type in all cases: cell-based
[1] = tested on: Human hepatoma cells BEL-7402; test: MTT growth inhibition on human hepatoma cells BEL-7402; settings: for inhibition at 10000 µM (stock): Homo sapiens, Bel-7402, read-out: Growth inhibition rate (%) on tumor cells Bel-7402; for Growth inhibition rate (%) on Bel-7402: Example 3, concentrations same as Example 1
Procedure: (§1) Human hepatoma cells BEL-7402 and human lung cancer cells PG provided by Institute of Biochemistry and Cell Biology, SIBS, CAS were cultured in the culture medium RPMI 1640 comprising 10% fetal bovine serum. The cells in the exponential growth phase were collected, digested with 0.25% trypsin, inoculated to a 96-well plate with each well having 3×10^3 cells, and then cultured in an incubator having 5% CO2 at 37° C. for 24 hours. Each experimental group was provided with 8 wells. 60 μL of a nucleoside solution having a total concentration of 10.0 mmol/L was added to each well, and the culture medium was replenished to ensure each well to have a volume of 200 μL. The control group was administered with 5-FU having the same concentration as the nucleoside solution. The obtained cells were diluted with serum-free medium and filtered with sterile microporous membrane having an aperture size of 0.22 μm. […] Thereafter, 20 μL of MTT solution having a concentration of 5 mg/mL was added to each well of the 96-well plate, which was further cultured in the incubator having 5% CO2 at 37° C. for 4 hours. After the culture, the supernate in the wells was removed. 150 μL of DMSO was added to each well. The 96-well plate was shaken for 10 minutes to facilitate the dissolution of the crystals. An automatic microplate reader (Thermo, Multiskan MK3) was employed to measure the absorbancy at 570 nm. Each experimental group was provided with 8 wells, and each experiment was repeated for three times. Table 1 lists the average value of the three experiments.
(§2) Survival rate of tumor cells (%)=measured OD value of experimental wells/OD value of wells of control group
(§3) Growth inhibition rate of tumor cells=100%−Survival rate of tumor cells (%)
1. Experimental method: The experimental groups and the control group were administered with different nucleosides or a combination thereof, as listed in Table 3. Human hepatoma cells Bel-7402 was provided by Institute of Biochemistry and Cell Biology, SIBS, CAS. The experimental method was the same as that in Example 1. The concentrations of the nucleoside combination, the single nucleoside, and 5-FU are all the same as that in Example 1.

[2] = tested on: human lung cancer cells PG; test: MTT growth inhibition on human lung cancer cells PG; settings: 48 hours, 60 μL of 10.0 mmol/L solution per 200 μL well, average of three experiments; for inhibition at 10000 µM (stock): Homo sapiens, read-out: Growth inhibition rate (%) on tumor cells PG
Procedure: (§4) Human hepatoma cells BEL-7402 and human lung cancer cells PG provided by Institute of Biochemistry and Cell Biology, SIBS, CAS were cultured in the culture medium RPMI 1640 comprising 10% fetal bovine serum. The cells in the exponential growth phase were collected, digested with 0.25% trypsin, inoculated to a 96-well plate with each well having 3×10^3 cells, and then cultured in an incubator having 5% CO2 at 37° C. for 24 hours. Each experimental group was provided with 8 wells. 60 μL of a nucleoside solution having a total concentration of 10.0 mmol/L was added to each well, and the culture medium was replenished to ensure each well to have a volume of 200 μL. The control group was administered with 5-FU having the same concentration as the nucleoside solution. The obtained cells were diluted with serum-free medium and filtered with sterile microporous membrane having an aperture size of 0.22 μm. 48 hours later, cell morphology was observed and photographed by an inverted microscope. Thereafter, 20 μL of MTT solution having a concentration of 5 mg/mL was added to each well of the 96-well plate, which was further cultured in the incubator having 5% CO2 at 37° C. for 4 hours. After the culture, the supernate in the wells was removed. 150 μL of DMSO was added to each well. The 96-well plate was shaken for 10 minutes to facilitate the dissolution of the crystals. An automatic microplate reader (Thermo, Multiskan MK3) was employed to measure the absorbancy at 570 nm. Each experimental group was provided with 8 wells, and each experiment was repeated for three times. Table 1 lists the average value of the three experiments.
as §2, §3

[3] = tested on: Human breast cancer cell lines Bcap-37; test: MTT growth inhibition on human breast cancer cell lines Bcap-37; settings: concentrations same as Example 1
Procedure: as §4, §2, §3
(§5) The experimental groups and the control group were administered with different nucleosides or a combination thereof, as listed in Table 5. Human breast cancer cell lines Bcap-37 was provided by the Institute of Basic Medical Sciences (IBMS) of the Chinese Academy of Medical Sciences (CAMS). The experimental method was the same as that in Example 1. The concentrations of the nucleoside combination, the single nucleoside, and 5-FU are all the same as that in Example 1.

[4] = tested on: Human colon cancer cell line HT-29; test: MTT growth inhibition on human colon cancer cell line HT-29; settings: 48 hours; concentrations same as Example 1 (total 10.0 mmol/L solution, 60 μL per 200 μL well)
Procedure: as §4, §2, §3
as §5, with “2.” for “5.”, “colon” for “breast”, “line HT-29” for “lines Bcap-37”, “deoxynucleoside,” for “nucleoside,”

[5] = tested on: Human gastric cancer cell lines BGC823; test: MTT growth inhibition on human gastric cancer cell lines BGC823; settings: concentrations same as Example 1
Procedure: as §1, §2, §3
as §5, with “4.” for “5.”, “gastric” for “breast”, “BGC823” for “Bcap-37”, “deoxynucleoside,” for “nucleoside,”

[6] = tested on: Human cervical carcinoma Hela; test: MTT growth inhibition on human cervical carcinoma Hela; settings: concentrations same as Example 1
[7] = tested on: Human glioma cell line SHG-44; test: MTT growth inhibition on human glioma cell line SHG-44; settings: concentrations same as Example 1
Procedure: as §4, with “After the culture, the supernate in the wells was removed. 150 μL of DMSO was added to each well. The 96-well plate was shaken for 10 minutes to facilitate the dissolution of the crystals.” left out, “Each experimental group was provided with 8 wells, and each experiment was repeated for three times. Table 1 lists the average value of the three experiments.” left out
Survival rate of tumor cells (%)=measured OD value of experimental wells/OD value of wells of control group […]

[8] = tested on: Human pancreatic cancer cell line PANC-1; test: MTT growth inhibition on human pancreatic cancer cell line PANC-1; settings: different dosage ratios of dA, dG, C, total concentration same as Example 1
[9] = 48 hours, 60 μL of 10.0 mmol/L solution per 200 μL well, MTT, average of three experiments

Nc1ccn([C@@H]2O[C@H](CO)[C@@H](O)[C@H]2O)c(=O)n1 [C, cytidine]
inhibition at 10000 µM (stock) [1, 9]: 65%
inhibition at 10000 µM (stock) [2]: 53%
Growth inhibition rate (%) on Bcap-37 ([3]; 48 hours): 65%
Growth inhibition rate (%) on Bcap-37 ([3]; 72 hours): 71%

Nc1ccn([C@H]2C[C@H](O)[C@@H](CO)O2)c(=O)n1 [dC, deoxycytidine]
inhibition at 10000 µM (stock) [1, 9]: 86%
inhibition at 10000 µM (stock) [2]: 84%
Growth inhibition rate (%) on HT-29 [4]: 89%

O=c1[nH]cc(F)c(=O)[nH]1 [5-FU, reference compound]
Growth inhibition rate (%) on tumor cells Bel-7402 [1, 9]: 91%
Growth inhibition rate (%) on Bel-7402 ([1]; 48 hours): 91%
Growth inhibition rate (%) on Bel-7402 ([1]; 72 hours): 95%
Growth inhibition rate (%) on tumor cells PG [2]: 90%
Growth inhibition rate (%) on HT-29 [4]: 96% and 95% and 91% and 93%
Growth inhibition rate (%) on BGC823 ([5]; 48 hours): 91%
Growth inhibition rate (%) on BGC823 ([5]; 72 hours): 95%
Growth inhibition rate (%) on Bcap-37 ([3]; 48 hours): 92%
Growth inhibition rate (%) on Bcap-37 ([3]; 72 hours): 95%
Growth inhibition rate (%) on Hela ([6]; 48 hours): 92%
Growth inhibition rate (%) on Hela ([6]; 72 hours): 96%
Growth inhibition rate (%) on SHG-44 ([7]; 48 hours): 91%
Growth inhibition rate (%) on SHG-44 ([7]; 72 hours): 96%
Growth inhibition rate (%) on human pancreatic cancer cell line PANC-1 ([8]; 48 hours): 93%
Growth inhibition rate (%) on human pancreatic cancer cell line PANC-1 ([8]; 72 hours): 95%

O=c1ccn([C@@H]2O[C@H](CO)[C@@H](O)[C@H]2O)c(=O)[nH]1 [U, uridine]
inhibition at 10000 µM (stock) [1, 9]: 49%
inhibition at 10000 µM (stock) [2]: 52%
Growth inhibition rate (%) on Bcap-37 ([3]; 48 hours): 58%
Growth inhibition rate (%) on Bcap-37 ([3]; 72 hours): 67%

Nc1ncnc2c1ncn2[C@@H]1O[C@H](CO)[C@@H](O)[C@H]1O [A, adenosine]
inhibition at 10000 µM (stock) [1, 9]: 86%
inhibition at 10000 µM (stock) [2]: 84%

Cc1cn([C@H]2C[C@H](O)[C@@H](CO)O2)c(=O)[nH]c1=O [T, thymidine]
inhibition at 10000 µM (stock) [1, 9]: 87%
inhibition at 10000 µM (stock) [2]: 88%
Growth inhibition rate (%) on HT-29 [4]: 85%

Nc1nc2c(ncn2[C@@H]2O[C@H](CO)[C@@H](O)[C@H]2O)c(=O)[nH]1 [G, guanosine]
inhibition at 10000 µM (stock) [1, 9]: 83%
inhibition at 10000 µM (stock) [2]: 87%

Nc1nc2c(ncn2[C@H]2C[C@H](O)[C@@H](CO)O2)c(=O)[nH]1 [dG, deoxyguanosine]
Growth inhibition rate (%) on Bel-7402 ([1]; 48 hours): 87%
Growth inhibition rate (%) on Bel-7402 ([1]; 72 hours): 93%
inhibition at 10000 µM (stock) [1, 9]: 95%
inhibition at 10000 µM (stock) [2]: 96%
Growth inhibition rate (%) on HT-29 [4]: 91%
Growth inhibition rate (%) on BGC823 ([5]; 48 hours): 85%
Growth inhibition rate (%) on BGC823 ([5]; 72 hours): 90%

Nc1ncnc2c1ncn2[C@H]1C[C@H](O)[C@@H](CO)O1 [dA, deoxyadenosine]
inhibition at 10000 µM (stock) [1, 9]: 96%
inhibition at 10000 µM (stock) [2]: 94%
Growth inhibition rate (%) on HT-29 [4]: 86%
Growth inhibition rate (%) on BGC823 ([5]; 48 hours): 89%
Growth inhibition rate (%) on BGC823 ([5]; 72 hours): 91%
